Test results: US6043283A, “Tyramine compounds and their neuronal effects” (priority 1997, dated 2000)
“Also recorded” adds a separate entry of the source. Like-named read-outs stand apart in the source and are kept apart here.

How the values were obtained:
[1] = test system: NTox released by Aβ1-42-stimulated microglia (neuron killing); assay: cells; assay type: cell-based, rat; conditions: 72 hours; FIG. 30 experiment
[2] = test system: human microglia; assay: induction of neuron-killing human microglia; assay type: cell-based; conditions: 1 μmole/liter synthetic peptides
[3] = test system: rat microglia; assay: binding of Aβ-coupled microspheres to microglia; conditions: 4 hours at 37° C. (72 h in FIG. 23)
[4] = test system: rat microglia; assay type: binding; conditions: 6 hours, 37° C.
Method: Synthetic Aβ peptides were linked to Sepharose beads (Pharmacia) in coupling buffer (0.1 M NaHCO3, 0.5 M NaCl, pH 8.3) containing 20% DMSO. This solution was combined with an appropriate volume of CNBr-activated Sepharose 4B (10 mg protein per ml of bead; Pharmacia protocol) and mixed overnight on a platform mixer at room temperature. Remaining active groups on the beads were blocked by 1.0 M glycine and excess uncoupled peptides removed from this bead-peptide complex by washing with three cycles of alternating pH (0.1 M acetate buffer, pH 4.0, followed by 0.1 M Tris-HCL buffer, pH 8.0, each buffer containing 0.5 M NaCl). Coupled beads (10^4 per ml) were placed in 35 mm culture dishes covered with 250,000 adhering microglia at 37° C. in 1.5 ml N2 medium in accordance with the procedure of Giulian et al., 1995a. The numbers of microglia which detached from the plate and bound to coupled beads were determined at the end of a 6 hour incubation period by inverted phase microscopy with 100 beads scored from each of three sister cultures. Glycine and bovine serum albumin (BSA) coupled beads were used as controls.

[5] = test system: reactive microglia in rat neocortex; assay: brain inflammatory response after infusion into neocortex of adult rat; assay type: in vivo; conditions: 0.5 nmoles Aβ1-42, co-infusion of 1.0 nmole peptide; 5 days
[6] = test system: human microglia; assay: nitrite/nitrate production, human microglia; assay type: cell-based
Method: Nitrites and nitrates, stable byproducts of nitric oxide synthetase (NOS) served as markers for nitric oxide (NO) synthesis (Ignarro, 1990). […]; for 24 to 72 hours incubated in the presence of neuritic/core plaques or Aβ peptides) were measured by the Griess method set forth by Beckman et al., 1990 against a standard curve ranging from 0.1 to 50.0 μM nitrate.

[7] = assay type: physicochemical; conditions: chemically defined culture media, 37° C.; Table 2
From the text: Solubility of peptides is described for chemicallydefined culture media a […]

[8] = test system: rat microglia; assay: microglial morphology / reactivity; assay type: cell-based
Method: Equal amounts of plaque protein (normalized to total amine content at 400 μmoles/l) were added to neuronal cultures in the presence (100,000 cells per culture) or absence of rat microglia. […] The chromatogram was developed with 80% glass distilled formic acid at a flow rate of 0.3 ml per minute and monitored at 280 nm.
Bright field photomicrographs of rat microglia cultures exposed to peak S1 (FIG. 20A) or peak S5 (FIG. 20B) and immuno-stained for the presence of Aβ.
FIGS. 22A-F depict cellular responses upon exposure to synthetic Aβ peptides. […] Bar=25 microns.

[9] = test system: rat microglia / hippocampal neurons; conditions: for neuron loss with conditioned media from microglia: 10% vol/vol conditioned media, microglia with 1 μmole/l peptide; for induction of neurotoxic microglia / neuron killing: rat microglia, mostly 1 μmole/l; for killing of neurons: rat, hippocampal neurons, 72 h, 1 µM
[10] = test system: microglia; assay: inhibition of SpheresAβ1-42 binding to microglia; set-up: species or system rat; conditions: 10 μmoles/l, 4 hours, 37° C.
[11] = test system: Aβ1-42-stimulated microglia; assay type: cell-based, rat; conditions: for blocking of Aβ1-42 induced microglial neurotoxicity by peptides: 10 μmoles/liter peptide, 1 μmole/liter Aβ1-42
Outline: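 E18 rat hippocampal cultures, microglia depleted with saporin–ac-LDL (10 μg/ml, 12 h) on day 14, then given test substances at 10μM with or without exogenous microglia (100,000 cells) for 72 h. Neurons immunostained (NF plus MAP-2) and nuclei counted by fluorescence microscopy; survival expressed as % of parallel untreated controls.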

[12] = test system: hippocampal neurons; assay type: cell-based, rat; conditions: absence of microglia
[13] = test system: NTox; assay: protection of neurons against isolated NTox applied directly; assay type: cell-based
From the text: FIG. 32 is a graph showing the specificity of tyramine compounds to NTox. […].
Initial studies to characterize the neuroprotective effect of tyramine compounds employed microglia-neuron co-culture assays in the presence of Aβ or isolated senile plaques. Inhibition of neuron killing in […]--inhibition of microglial activation by Aβ or plaques; inhibition of NTox production and release by microglia; or inhibition of action of NTox upon neurons. […] Effective doses in the low nmolar range show the tyramine compounds to be very potent agents compared with low μmolar range of other neuroprotective drugs under development for neurological disorders.

[14] = test system: quinolinic acid (QUIN); assay: protection of neurons against quinolinic acid; assay type: cell-based; conditions: QUIN (100 μM in FIG. 13)
From the text: (§1) FIG. 32 is a graph showing the specificity of tyramine compounds to NTox. […]

[15] = test system: AMAA; assay: protection of neurons against AMAA; assay type: cell-based; conditions: FIG. 32
From the text: as §1

[16] = test system: NMDA receptor; assay: whole cell current elicited by NMDA in Xenopus oocytes injected with NMDA R1 and R2 subunit cRNAs; assay type: cell-based; conditions: FIG. 34
From the text: FIG. 34 is a graph shorting the % maximal current peak elicited by NMDA, octopamine and tyramine compounds in the presence of a given NMDA concentration. […].
The precise mechanism of NTox that leads to the destruction of neurons is only partially characterized. Based upon extensive testing with receptor antagonists, it has been discovered that two classes of neurotransmitter receptors are involved--the n-methyl D-aspartate (NMDA) class of […] receptors and the Muscarinic (M receptors) class of cholinergic receptors. […] […]. Further study to determine if tyramine compounds act upon the NMDA receptor itself involved expression of the NMDA receptor complex in Xenopus oocytes and measurement of ionic fluxes across the oocyte membrane that are elicited by NMDA. […] […]. […] Thus, tyramine compounds appear to have several actions, one of which is upon the NMDA receptor.

[17] = test system: human microglia stimulated with S5; assay type: cell-based;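 note: drugs applied at 10 µM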
[18] = test system: scavenger receptor II mRNA / microglia; assay: microsphere implants in brain neocortex: reactive microglia and scavenger receptor mRNA; assay type: in vivo
From the text: FIGS. 7A, B, and C show SpheresAβ1-42 in vivo. […]. […] Microglia were visualized by uptake of fluorescent labeled acetylated LDL, DiI-ac-LDL Bar=40 μm, FIG. 7A; 25 μm FIG. 7B and C.

Which results are given for “Aβ1-42: synthetic human β-amyloid peptide 1-42”?
neurons destroyed by Aβ-stimulated microglia [1]: about 65%; induction of neurotoxic human microglia [2]: very potent inducers of neurotoxic human microglia; also recorded: stimulated release of neurotoxin from human microglia; binding of peptide-coupled microspheres to microglia [3]: marked glial binding; also recorded: readily bind; also recorded: readily engulfed by microglia; microglial adherence to coupled Sepharose beads [4]: anchored to beads; also recorded: provided an anchoring site for microglia; local brain inflammatory response [5]: produces an inflammatory response; release of nitrate or nitrite, human microglia [6]: did not bring about release of nitrate or nitrites; Solubility [7]: very insoluble; microglial morphology / reactivity [8]: morphological changes with retraction of processes; neuron killing, microglia separated from neurons (no contact) [9]: stimulated microglia to destroy neurons; neuron killing ([9]; 100 nmoles/liter, rat microglia 500 cells per mm^2): destroyed nearly all neurons; neuron loss with conditioned media from microglia [9]: Significant neuron loss occurred; neuron kill ([9]; "aged" Aβ1-42): 77.5%±2.6%; neuron kill ([9]; fresh Aβ1-42): 75.1%±5.8%; induction of neurotoxic microglia / neuron killing ([9]; listed as 1-42): induced toxic effects; killing of neurons [9]: 70-80%

With Aβ1-28: Aβ peptide residues 1-28 as the compound, how does the “induction of neurotoxic human microglia” value [2] read?
Its value is “inactive”.

What about the “inhibition of SpheresAβ1-42 binding by peptides” value [10] of the same compound?
The value was “effectively prevented”.

And the “blocking of Aβ1-42 induced microglial neurotoxicity by peptides” value [11]?
The value was “blocked neurotoxin production”.

What about the IC50 ([11]; read-out: ED50 (blocking of Aβ1-42 induced neurotoxicity), FIG. 16B) of the same compound?
Its IC50 is 250 nM.

And the “direct neurotoxicity without microglia” value [12]?
Its value is “did not produce neurotoxicity”.

And the “microglial adherence to coupled Sepharose beads” value [4]?
The value was “promoted cell binding; also recorded: promoted bead binding”.

What about the Solubility [7] of the same compound?
The Solubility was “soluble”.

And the “induction of neurotoxic microglia / neuron killing” value ([9]; listed as 1-28)?
The value was “inactive”.

For `NC(CCCP(=O)(O)O)C(=O)O` (stereo not drawn) [AP5], which “neuroprotective effects against NTox, concentration range” value [13] is on record?
The value was about 100 nM.

And the “inhibition of killing action of NTox applied to neurons” value ([13]; isolated NTox, FIGS. 13, 32)?
Its value is “NTox can be blocked”.

What about the “protection against quinolinic acid” value [14] of the same compound?
The value was “prevented from killing neurons”.

And the “protection against AMAA” value [15]?
The value was “prevented from killing neurons”.

What about the “effect on current elicited by NMDA” value [16] of the same compound?
Its value is “could be blocked”.

What about the “drug blockade of neuron killing, rat microglia” value [11] of the same compound?
The value was “prevented neuronal loss; also recorded: prevented neuron death”.

And the “drug blockade of neuron killing, human microglia” value [17]?
The value was “prevented neuron death”.

Which results are given for “SpheresAβ1-42: Aβ1-42 coupled to (fluorescent) microspheres”?
binding of peptide-coupled microspheres to microglia [3]: rapidly engulfed by cultured microglia; binding of peptide-coupled microspheres to microglia ([3]; listed as Aβ1-42-spheres): localized specifically within DiI-ac-LDL(+) microglia; binding of peptide-coupled microspheres to microglia ([3]; listed as Aβ1-42 coupled-microspheres): readily taken up by microglia; increase in scavenger receptor mRNA vs undamaged tissue or SphereBSA ([18]; two weeks after implantation): 5 fold; reactive microglia around implanted spheres ([18]; weeks after implantation): chronically stimulate the presence of reactive cells; induction of neurotoxic microglia / neuron killing [9]: induced neuron killing; killing of neurons [9]: 70-80%

With “Aβ17-43: Aβ peptide residues 17-43 (LVFFAEDVGSNKGAIIGLMVGGVVIAT; Amyloid-beta protein 42; UniProt P05067 688-714, looked up, fragment)” as the compound, how does the “induction of neurotoxic human microglia” value [2] read?
The value was “inactive”.

What about the “inhibition of SpheresAβ1-42 binding by peptides” value [10] of the same compound?
The value was “did not”.

What about the “blocking of Aβ1-42 induced microglial neurotoxicity by peptides” value [11] of the same compound?
Its value is “did not”.

What about the “microglial morphology / reactivity” value [8] of the same compound?
The value was “does not alter microglial morphology”.

What about the “neuron loss with conditioned media from microglia” value [9] of the same compound?
The value was “undamaged”.
